Measured values from the supplement of paper PMC10307832.

Key:
Test in all cases: relative viability (nuclei count vs DMSO), 5 days (fraction); higher = more cells survive
VE-821 + Luminespib = compound: CS(=O)(=O)c1ccc(-c2cnc(N)c(C(=O)Nc3ccccc3)n2)cc1 [VE-821] + CCNC(=O)c1noc(-c2cc(C(C)C)c(O)cc2O)c1-c1ccc(CN2CCOCC2)cc1 [Luminespib] (partner 0.01 µM)
How it was run: (§1)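 Lung cancer cell lines in 1536-well plates were dosed by pin tool the day after seeding, either with one drug alone or with a fixed anchor-drug dose plus five library-drug doses (not always all listed) in √10 steps. After 5 days, cells were fixed and their nuclei stained in one step (final 0.05% Triton X-100, 1% formaldehyde, 1 ug/ml Hoechst), then counted on 4× images. Relative viability is the nuclei count in treated wells divided by that in vehicle wells. Values are medians of duplicate plates.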

Ruxolitinib + Trametinib = compound: N#CC[C@H](C1CCCC1)n1cc(-c2ncnc3[nH]ccc23)cn1 [Ruxolitinib] + CC(=O)Nc1cccc(-n2c(=O)n(C3CC3)c(=O)c3c(Nc4ccc(I)cc4F)n(C)c(=O)c(C)c32)c1 [Trametinib] (partner 0.02 µM)
How it was run: as §1

VE-821 + Pictilisib = compound: CS(=O)(=O)c1ccc(-c2cnc(N)c(C(=O)Nc3ccccc3)n2)cc1 [VE-821] + CS(=O)(=O)N1CCN(Cc2cc3nc(-c4cccc5[nH]ncc45)nc(N4CCOCC4)c3s2)CC1 [Pictilisib] (partner 1 µM)
How it was run: as §1

VE-821 + Bortezomib = compound: CS(=O)(=O)c1ccc(-c2cnc(N)c(C(=O)Nc3ccccc3)n2)cc1 [VE-821] + CC(C)C[C@H](NC(=O)[C@H](Cc1ccccc1)NC(=O)c1cnccn1)B(O)O [Bortezomib] (partner 0.002 µM)
How it was run: as §1

Cell Line | relative viability (VE-821 + Luminespib; first compound 0.08 µM) | relative viability (VE-821 + Luminespib; first compound 0.253 µM) | relative viability (VE-821 + Luminespib; first compound 0.8 µM) | relative viability (VE-821 + Luminespib; first compound 2.53 µM) | relative viability (VE-821 + Luminespib; first compound 8 µM) | relative viability (Ruxolitinib + Trametinib; first compound 0.08 µM) | relative viability (Ruxolitinib + Trametinib; first compound 0.253 µM) | relative viability (Ruxolitinib + Trametinib; first compound 0.8 µM) | relative viability (Ruxolitinib + Trametinib; first compound 2.53 µM) | relative viability (Ruxolitinib + Trametinib; first compound 8 µM) | relative viability (VE-821 + Pictilisib; first compound 0.08 µM) | relative viability (VE-821 + Pictilisib; first compound 0.253 µM) | relative viability (VE-821 + Pictilisib; first compound 0.8 µM) | relative viability (VE-821 + Pictilisib; first compound 2.53 µM) | relative viability (VE-821 + Pictilisib; first compound 8 µM) | relative viability (VE-821 + Bortezomib; first compound 0.08 µM) | relative viability (VE-821 + Bortezomib; first compound 0.253 µM) | relative viability (VE-821 + Bortezomib; first compound 0.8 µM) | relative viability (VE-821 + Bortezomib; first compound 2.53 µM) | relative viability (VE-821 + Bortezomib; first compound 8 µM)
SW 900 | 0.199 | 0.187 | 0.156 | 0.167 | 0.152 | 0.597 | 0.742 | 1.09 | 0.614 | 0.902 | – | – | – | – | – | – | – | – | – | –
NCI-H358 | 0.62 | 0.307 | 0.334 | 0.537 | 1.49 | 0.144 | 0.12 | 0.138 | 0.0972 | 0.148 | 0.383 | 0.273 | 0.408 | 0.359 | 0.38 | – | – | – | – | –
ChaGo-K-1 | 0.537 | 0.481 | 0.445 | 0.582 | 0.312 | 0.885 | 0.887 | 0.828 | 0.803 | 0.765 | 0.705 | 0.712 | 0.927 | 0.797 | 0.339 | 1 | 1.01 | 1.24 | 0.989 | 0.812
NCI-H1755 | 0.514 | 0.344 | 0.427 | 0.468 | 0.201 | 0.803 | 0.777 | 0.796 | 0.549 | 0.694 | 0.509 | 0.359 | 0.416 | 0.418 | 0.363 | 1.01 | 0.95 | 0.941 | 0.898 | 0.79
LCLC-103H | 1.1 | 0.925 | 0.898 | 0.947 | 0.718 | 0.728 | 0.707 | 0.731 | 0.595 | 0.639 | 0.572 | 0.51 | 0.663 | 0.75 | 0.494 | 1.12 | 0.938 | 1.01 | 1.06 | 1.09
HCC-827 | 0.599 | 0.686 | 0.277 | 0.696 | 0.489 | – | 0.545 | 0.563 | 0.469 | 0.784 | 1.1 | 1.03 | 1.19 | 1.24 | 1.19 | 1.01 | 0.996 | 1.04 | 1.12 | 1.08
HCC-44 | 1.34 | 0.97 | 0.908 | 1.14 | 0.807 | 1.04 | 0.971 | 0.997 | 0.753 | 1.02 | 1.86 | 0.468 | 0.701 | 0.708 | 0.79 | 1 | 0.908 | 0.98 | 1.01 | 0.975
NCI-H727 | 0.317 | 0.342 | 0.368 | 0.346 | 0.353 | 0.406 | 0.407 | 0.413 | 0.416 | 0.453 | 0.418 | 0.314 | 0.232 | 0.458 | 0.227 | 0.872 | 0.817 | 0.741 | 0.761 | 0.493
NCI-H1563 | 0.56 | 0.499 | 0.491 | 0.509 | 0.338 | – | – | – | – | – | 0.581 | 0.613 | 0.648 | 0.663 | 0.731 | 0.908 | 0.888 | 0.784 | 0.774 | 0.763
